Results: patent publication US9499538B2, “Estrogen receptor modulators and uses thereof” (Seragon Pharmaceuticals, Inc., priority 2012, dated 2016)

Columns and labels:
ER-α in MCF-7 cells = molecular target: T1, ER-α in MCF-7 cells (Homo sapiens, UniProt P03372); assay: Breast Cancer Cell ER-α In Cell Western Assay (SP1); format: cell-based; conditions: 4 or 24 hr post compound addition; for Emax: MCF7, SP1 antibody, read-out: ER-α In Cell Western Assay (SP1) Max Response; for DC50: SP1 antibody, read-out: ER-α In Cell Western Assay (SP1) IC50
T1 construct: endogenous in cells; host or cells: MCF-7
T1 sequence (P03372 1-595): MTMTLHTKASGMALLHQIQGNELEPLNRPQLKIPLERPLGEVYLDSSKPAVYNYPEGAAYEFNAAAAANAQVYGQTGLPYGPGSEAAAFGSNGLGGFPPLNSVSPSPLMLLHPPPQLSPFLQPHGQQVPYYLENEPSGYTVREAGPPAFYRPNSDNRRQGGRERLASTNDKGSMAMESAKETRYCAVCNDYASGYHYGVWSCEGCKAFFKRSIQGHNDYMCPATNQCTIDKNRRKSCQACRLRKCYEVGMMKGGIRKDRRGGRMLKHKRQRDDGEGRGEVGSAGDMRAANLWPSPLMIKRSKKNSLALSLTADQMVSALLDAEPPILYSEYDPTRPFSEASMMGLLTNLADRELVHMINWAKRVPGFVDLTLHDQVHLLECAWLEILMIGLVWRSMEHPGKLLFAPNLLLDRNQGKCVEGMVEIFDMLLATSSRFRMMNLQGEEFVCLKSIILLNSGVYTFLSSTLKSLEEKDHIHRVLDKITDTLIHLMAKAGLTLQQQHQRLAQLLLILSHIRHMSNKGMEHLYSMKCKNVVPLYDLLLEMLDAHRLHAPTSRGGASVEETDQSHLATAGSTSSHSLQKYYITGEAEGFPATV
Procedure, shortened: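 MCF-7 cells in charcoal-stripped FBS medium, treated with 11-point semilog dilutions (0.3–0.000003 μM final) for 4 or 24 h. Fixed cells immunostained with SP1 antibody (800 nm) and DRAQ5 DNA (700 nm); ER/DNA ratio expressed as % of untreated cells.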

MCF-7 cells = assay: Breast Cancer Cell Viability Assays (MCF-7, CellTiter-Glo); format: cell-based; conditions: 5 days' compound exposure; for IC50: Homo sapiens, MCF7, 120 h
Procedure, shortened: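 MCF-7 cells (320/well, RPMI with 10% FBS) exposed for 5 days to an eleven-point semilog series, 0.3–0.000003 μM final. Viability read by CellTiter-Glo luminescence, expressed as background-corrected percent of untreated cells.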

With `Fc1n[nH]c2ccc(/C(=C(/c3ccccc3)C3CCC3)c3ccc(/C=C/c4cnn[nH]4)cc3)cc12` [Example 286, 5-((E)-1-(4-((E)-2-(1H-1,2,3-Triazol-5-yl)vinyl)phenyl)-2-cyclobutyl-2-phenylvinyl)-3-fluoro-1H-indazole] the Emax (ER-α in MCF-7 cells) was ≥ 40%, the DC50 (ER-α in MCF-7 cells) was ≤ 100 nM and the “MCF7 Viability Assay Max Response” value (MCF-7 cells) was “++ (++ = a single % value ≧ 40%)”. The IC50 (MCF-7 cells) was ≤ 100 nM.
`Clc1cnccc1/C(=C(\c1ccc(/C=C/c2nnn[nH]2)cc1)c1ccc2scnc2c1)C1CCC1` [Example 176, 5-((E)-1-(4-((E)-2-(2H-Tetrazol-5-yl)vinyl)phenyl)-2-(3-chloropyridin-4-yl)-2-cyclobutylvinyl)benzo[d]thiazole] was tested, and the Emax (ER-α in MCF-7 cells) was ≥ 40%, the DC50 (ER-α in MCF-7 cells) was ≤ 100 nM and the “MCF7 Viability Assay Max Response” value (MCF-7 cells) was “++ (++ = a single % value ≧ 40%)”. For the same molecule, the IC50 (MCF-7 cells) was ≤ 100 nM.
For `O=C(O)/C=C/c1ccc(/C(=C(\c2ccc(OC(F)(F)F)cc2Cl)C2CCC2)c2ccc3[nH]nc(F)c3c2)cn1` [Example 272, (E)-3-(5-((Z)-2-(2-Chloro-4-(trifluoromethoxy)phenyl)-2-cyclobutyl-1-(3-fluoro-1H-indazol-5-yl)vinyl)pyridin-2-yl)acrylic acid], the Emax (ER-α in MCF-7 cells) was ≥ 40%, the DC50 (ER-α in MCF-7 cells) was ≤ 100 nM and the “MCF7 Viability Assay Max Response” value (MCF-7 cells) was “++ (++ = a single % value ≧ 40%)”. For the same molecule, the IC50 (MCF-7 cells) was ≤ 100 nM.
With `N#Cc1cc(F)ccc1/C(=C(\c1ccc(/C=C/C(=O)O)cc1)c1ccc2[nH]nc(F)c2c1)C1CC1` [Example 155, (E)-3-(4-((E)-2-(2-Cyano-4-fluorophenyl)-2-cyclopropyl-1-(3-fluoro-1H-indazol-5-yl)vinyl)phenyl)acrylic acid] the Emax (ER-α in MCF-7 cells) was ≥ 40%, the DC50 (ER-α in MCF-7 cells) was ≤ 100 nM and the “MCF7 Viability Assay Max Response” value (MCF-7 cells) was “++ (++ = a single % value ≧ 40%)”. For the same molecule, the IC50 (MCF-7 cells) was ≤ 100 nM.
For `O=C(O)/C=C/c1ccc(/C(=C(\c2ccccc2Cl)C2CCC2)c2ccc3scnc3c2)cc1` [Example 234, (E)-3-(4-((E)-1-(Benzo[d]thiazol-5-yl)-2-(2-chlorophenyl)-2-cyclobutylvinyl)phenyl)acrylic acid], the Emax (ER-α in MCF-7 cells) was ≥ 40%, the DC50 (ER-α in MCF-7 cells) was ≤ 100 nM and the “MCF7 Viability Assay Max Response” value (MCF-7 cells) was “++ (++ = a single % value ≧ 40%)”. For the same molecule, the IC50 (MCF-7 cells) was ≤ 100 nM.
In the case of `N#Cc1cc(Cl)ccc1/C(=C(\c1ccc(/C=C/C(=O)O)cc1)c1ccc2[nH]ncc2c1F)C1CCC1` [Example 61, (E)-3-(4-((E)-2-(4-Chloro-2-cyanophenyl)-2-cyclobutyl-1-(4-fluoro-1H-indazol-5-yl)vinyl)phenyl)acrylic acid], the Emax (ER-α in MCF-7 cells) is reported as ≥ 40%, the DC50 (ER-α in MCF-7 cells) is reported as ≤ 100 nM and the “MCF7 Viability Assay Max Response” value (MCF-7 cells) is reported as “++ (++ = a single % value ≧ 40%)”. The IC50 (MCF-7 cells) was ≤ 100 nM.
For `O=C(/C=C/c1ccc(/C(=C(\c2ccccc2)C2CCC2)c2ccc3[nH]nc(F)c3c2)cc1)NC(CO)CO` [Example 189, (E)-3-(4-((E)-2-Cyclobutyl-1-(3-fluoro-1H-indazol-5-yl)-2-phenylvinyl)phenyl)-N-(1,3-dihydroxypropan-2-yl)acrylamide], the Emax (ER-α in MCF-7 cells) was ≥ 40%, the DC50 (ER-α in MCF-7 cells) was ≤ 100 nM and the “MCF7 Viability Assay Max Response” value (MCF-7 cells) was “++ (++ = a single % value ≧ 40%)”. The IC50 (MCF-7 cells) was ≤ 100 nM.
In the case of `CC/C(=C(/c1ccc(/C=C/C(=O)NC)cc1)c1ccc2scnc2c1)c1ccc(F)cc1Cl` [Example 184, (E)-3-(4-((E)-1-(Benzo[d]thiazol-5-yl)-2-(2-chloro-4-fluorophenyl)but-1-en-1-yl)phenyl)-N-methylacrylamid], the Emax (ER-α in MCF-7 cells) is reported as ≥ 40%, the DC50 (ER-α in MCF-7 cells) is reported as ≤ 100 nM and the “MCF7 Viability Assay Max Response” value (MCF-7 cells) is reported as “++ (++ = a single % value ≧ 40%)”. The IC50 (MCF-7 cells) was ≤ 100 nM.
In the case of `Fc1ccc(/C(=C(\c2ccc(/C=C/c3nnn[nH]3)cc2)c2ccc3nccn3c2)C2CCC2)c(Cl)c1` [Example 178, 6-((E)-1-(4-((E)-2-(2H-Tetrazol-5-yl)vinyl)phenyl)-2-(2-chloro-4-fluorophenyl)-2-cyclobutylvinyl)imidazo[1,2-a]pyridine], the Emax (ER-α in MCF-7 cells) is reported as ≥ 40%, the DC50 (ER-α in MCF-7 cells) is reported as ≤ 100 nM and the “MCF7 Viability Assay Max Response” value (MCF-7 cells) is reported as “++ (++ = a single % value ≧ 40%)”. For the same molecule, the IC50 (MCF-7 cells) was ≤ 100 nM.
For `O=C(O)/C=C/c1ccc(/C(=C(\c2ccccc2)C2CCC2)c2ccc3[nH]nc(F)c3c2)cc1F` [Example 265, (E)-3-(4-((Z)-2-Cyclobutyl-1-(3-fluoro-1H-indazol-5-yl)-2-phenylvinyl)-2-fluorophenyl)acrylic acid], the Emax (ER-α in MCF-7 cells) was ≥ 40%, the DC50 (ER-α in MCF-7 cells) was ≤ 100 nM and the “MCF7 Viability Assay Max Response” value (MCF-7 cells) was “++ (++ = a single % value ≧ 40%)”. For the same molecule, the IC50 (MCF-7 cells) was ≤ 100 nM.
With `CC/C(=C(/c1ccc(/C=C/C(=O)O)cc1)c1cc(F)c2[nH]ncc2c1F)c1ccccc1` [Example 32, (E)-3-(4-((E)-1-(4,7-Difluoro-1H-indazol-5-yl)-2-phenylbut-1-en-1-yl)phenyl)acrylic acid] the Emax (ER-α in MCF-7 cells) was ≥ 40%, the DC50 (ER-α in MCF-7 cells) was > 100 nM and the “MCF7 Viability Assay Max Response” value (MCF-7 cells) was “++ (++ = a single % value ≧ 40%)”. The IC50 (MCF-7 cells) was > 100 nM.
In the case of `CS(=O)(=O)c1ccc(/C(=C(\c2ccc(/C=C/C(=O)O)cc2)c2ccc3[nH]nc(F)c3c2)C2CCC2)c(F)c1` [Example 51, (E)-3-(4-((E)-2-Cyclobutyl-1-(3-fluoro-1H-indazol-5-yl)-2-(2-fluoro-4-(methylsulfonyl)phenyl)vinyl)phenyl)acrylic acid], the Emax (ER-α in MCF-7 cells) is reported as ≥ 40%, the DC50 (ER-α in MCF-7 cells) is reported as ≤ 100 nM and the “MCF7 Viability Assay Max Response” value (MCF-7 cells) is reported as “++ (++ = a single % value ≧ 40%)”. The IC50 (MCF-7 cells) was ≤ 100 nM.
In the case of `CC/C(=C(/c1ccc(/C=C/C(=O)O)cc1)c1ccc2[nH]nc(F)c2c1)c1ccc(C#N)cc1F` [Example 104, (E)-3-(4-((E)-2-(4-Cyano-2-fluorophenyl)-1-(3-fluoro-1H-indazol-5-yl)but-1-en-1-yl)phenyl)acrylic acid], the Emax (ER-α in MCF-7 cells) is reported as ≥ 40%, the DC50 (ER-α in MCF-7 cells) is reported as ≤ 100 nM and the “MCF7 Viability Assay Max Response” value (MCF-7 cells) is reported as “++ (++ = a single % value ≧ 40%)”. The IC50 (MCF-7 cells) was ≤ 100 nM.
`N#Cc1cc(Cl)ccc1/C(=C(\c1ccc(/C=C/C(=O)O)cc1)c1ccc2[nH]nc(F)c2c1)C1CCC1` [Example 108, (E)-3-(4-((E)-2-(4-Chloro-2-cyanophenyl)-2-cyclobutyl-1-(3-fluoro-1H-indazol-5-yl)vinyl)phenyl)acrylic acid] was tested, and the Emax (ER-α in MCF-7 cells) was ≥ 40%, the DC50 (ER-α in MCF-7 cells) was ≤ 100 nM and the “MCF7 Viability Assay Max Response” value (MCF-7 cells) was “++ (++ = a single % value ≧ 40%)”. The IC50 (MCF-7 cells) was ≤ 100 nM.
In the case of `CCOC(=O)/C=C/c1ccc(/C(=C(\c2ncc(Cl)cc2Cl)C2CCC2)c2ccc3[nH]nc(F)c3c2)cc1F` [Example 255, (E)-Ethyl 3-(4-((Z)-2-cyclobutyl-2-(3,5-dichloropyridin-2-yl)-1-(3-fluoro-1H-indazol-5-yl)vinyl)-2-fluorophenyl)acrylate], the Emax (ER-α in MCF-7 cells) is reported as ≥ 40%, the DC50 (ER-α in MCF-7 cells) is reported as ≤ 100 nM and the “MCF7 Viability Assay Max Response” value (MCF-7 cells) is reported as “+ (+ = a single % value < 40%)”. The IC50 (MCF-7 cells) was ≤ 100 nM.
For `COc1cc(/C(=C(\c2ccccc2)C2CCC2)c2ccc3[nH]nc(F)c3c2)cnc1/C=C/C(=O)O` [Example 165, (E)-3-(5-((Z)-2-Cyclobutyl-1-(3-fluoro-1H-indazol-5-yl)-2-phenylvinyl)-3-methoxypyridin-2-yl)acrylic acid], the Emax (ER-α in MCF-7 cells) was ≥ 40%, the DC50 (ER-α in MCF-7 cells) was ≤ 100 nM and the “MCF7 Viability Assay Max Response” value (MCF-7 cells) was “++ (++ = a single % value ≧ 40%)”. For the same molecule, the IC50 (MCF-7 cells) was > 100 nM.
For `O=C(O)/C=C/c1ccc(/C(=C(\c2ccc(F)cc2Cl)C2CCC2)c2ccc3[nH]nnc3c2)cc1` [Example 79, (E)-3-(4-((E)-1-(1H-Benzo[d][1,2,3]triazol-5-yl)-2-(2-chloro-4-fluoro-phenyl)-2-cyclobutylvinyl)phenyl)acrylic acid], the Emax (ER-α in MCF-7 cells) was ≥ 40%, the DC50 (ER-α in MCF-7 cells) was ≤ 100 nM and the “MCF7 Viability Assay Max Response” value (MCF-7 cells) was “++ (++ = a single % value ≧ 40%)”. For the same molecule, the IC50 (MCF-7 cells) was ≤ 100 nM.
For `CNC(=O)/C=C/c1ccc(/C(=C(\c2ccccc2)C2CCC2)c2ccc3[nH]nc(F)c3c2)cc1` [Example 190, (E)-3-(4-((E)-2-Cyclobutyl-1-(3-fluoro-1H-indazol-5-yl)-2-phenylvinyl)phenyl)-N-methylacrylamide], the Emax (ER-α in MCF-7 cells) was ≥ 40%, the DC50 (ER-α in MCF-7 cells) was ≤ 100 nM and the “MCF7 Viability Assay Max Response” value (MCF-7 cells) was “++ (++ = a single % value ≧ 40%)”. For the same molecule, the IC50 (MCF-7 cells) was ≤ 100 nM.
`Cc1cscc1/C(=C(\c1ccc(/C=C/C(=O)NCCO)cc1)c1ccc2scnc2c1)C1CCC1` [Example 180, (E)-3-(4-((E)-1-(Benzo[d]thiazol-5-yl)-2-cyclobutyl-2-(4-methylthiophen-3-yl)vinyl)phenyl)-N-(2-hydroxyethyl)acrylamide] was tested, and the Emax (ER-α in MCF-7 cells) was ≥ 40%, the DC50 (ER-α in MCF-7 cells) was ≤ 100 nM and the “MCF7 Viability Assay Max Response” value (MCF-7 cells) was “++ (++ = a single % value ≧ 40%)”. For the same molecule, the IC50 (MCF-7 cells) was ≤ 100 nM.
With `O=C(O)/C=C/c1ccc(/C(=C(\c2ccccc2)C2CCC2)c2ccc3[nH]ncc3n2)cc1` [Example 33, (E)-3-(4-((E)-2-Cyclobutyl-2-phenyl-1-(1H-pyrazolo[4,3-b]pyridin-5-yl)vinyl)phenyl)acrylic acid] the Emax (ER-α in MCF-7 cells) was ≥ 40%, the DC50 (ER-α in MCF-7 cells) was ≤ 100 nM and the “MCF7 Viability Assay Max Response” value (MCF-7 cells) was “++ (++ = a single % value ≧ 40%)”. For the same molecule, the IC50 (MCF-7 cells) was ≤ 100 nM.
